In ChEMBL document CHEMBL5729163, “Substituted cyclohexyl compounds as NOP inhibiiors” (2022):
pIC50: −log10 of the molar value.

Target: Nociceptin receptor (Homo sapiens, UniProt P41146)
Experiment: Cell-Based NOP Assay: Formula (I) compounds were tested for antagonism of the nociceptin receptor (NOP) in a cell-based cAMP assay, using the LANCE cAMP Detection Kit, Perkin Elmer (Waltham, Mass.). This assay (LANCE cAMP) is a homogeneous, time-resolved fluorescence resonance energy transfer (TR-FRET) immunoassay designed to measure cAMP produced upon modulation of adenylyl cyclase activity by G protein-coupled receptors (GPCRs).ProtocolCells expressing human opioid NOP (ValiScreen cell line, cat #ES-230-C Perkin Elmer (Waltham, Mass.) were dispensed in simulation buffer (5 mM Hepes, 0.1% BSA, 0.5 mM IBMX in Hanks Buffered Saline Solution) at 2.5 μL cells per well (400 cells/well) into a 1536 white TC-treated assay plate. Compound was then added and plates were incubated for 15 minutes at room temperature. To each well was added 2.5 μL of a solution containing forskolin (3 μM final) and nociceptin peptide (390 pM final) diluted in stimulation buffer, and the plates were incubated for 30 minutes at room temperature. To each well was dispensed 5 μL of LANCE Ultra detection (1:300 dilution of anti-cAMP ULight with a 1:100 dilution of Eu-cAMP tracer diluted in cAMP Detection Buffer) reagent, and the plates were incubated for 1 hr at room temperature. The plate was then read on the ViewLux microplate reader (Perkin Elmer, Waltham, Mass.) using the LANCE 1536 protocol with 60 second exposure times and 50 μs delay. This protocol has an excitation wavelength of 340 nm (DUG11 filter) and emission wavelengths of 615 nm (Eu-Donor) and 665 nm (Alexa 647 cAMP antibody acceptor).Data AnalysisData was analyzed, normalized, and visualized using ACAS (John McNeil & Co.). Efficacy was calculated using activity of the vehicle (DMSO) as 0% efficacy and the activity of the corresponding reference positive control (SCH 221510, Tocris Bioscience (Pittsburgh, Pa.), Catalog number 3240) as 100% efficacy. Activity was calculated as the ratio of donor and acceptor emissions. All curve fits and IC50 determinations were performed using a non-linear regression model. The IC50 value was measured as the concentration at which half-maximal response was calculated.

Chain of Nociceptin receptor (P41146 whole entry): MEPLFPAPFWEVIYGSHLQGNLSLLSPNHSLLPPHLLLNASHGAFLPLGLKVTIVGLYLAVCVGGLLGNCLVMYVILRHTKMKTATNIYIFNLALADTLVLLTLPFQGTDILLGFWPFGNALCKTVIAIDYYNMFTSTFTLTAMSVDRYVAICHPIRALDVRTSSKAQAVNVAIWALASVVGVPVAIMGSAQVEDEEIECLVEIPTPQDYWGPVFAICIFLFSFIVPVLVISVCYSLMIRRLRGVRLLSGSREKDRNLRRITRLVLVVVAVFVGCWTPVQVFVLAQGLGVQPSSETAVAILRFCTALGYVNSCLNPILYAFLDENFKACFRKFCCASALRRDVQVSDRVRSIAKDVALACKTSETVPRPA

Compound | pIC50
NC(=O)N1CCC(NCCC2CCC(c3ncc(F)cc3Cl)CC2)CC1 (stereo unspecified) | 6.00 to 7.00
CC1(NCCC2CCC(c3ncccc3Cl)CC2)CCCC1 (stereo unspecified) | 6.00 to 7.00
COCC1(NCCC2CCC(c3cnccc3C)CC2)CCOCC1 (stereo unspecified) | 6.00 to 7.00
COCC1(NCCC2CCC(c3cccc(F)c3Cl)CC2)CCOCC1 (stereo unspecified) | 6.00 to 7.00
NC(=O)C1(NCC[C@H]2CC[C@H](c3ccc(F)cc3F)CC2)CCOCC1 | 6.00 to 7.00
Cc1cccnc1C1CCC(CCNC2CCCCC2)CC1 (stereo unspecified) | 6.00 to 7.00
NC(=O)C1(NCC[C@H]2CC[C@@H](c3ccc(F)cc3Cl)CC2)CCOC1 (stereo partly specified) | 6.00 to 7.00
NC(=O)C1(NCC[C@H]2CC[C@@H](c3c(F)cc(F)cc3F)CC2)CCOCC1 | 6.00 to 7.00
Oc1cccc([C@H]2CC[C@@H](CCNC3CCOCC3)CC2)c1 | 6.00 to 7.00
Cc1nccnc1[C@H]1CC[C@@H](CCNC2CCOCC2)CC1 | 6.00 to 7.00
CC(=O)N1CCC(NCCC2CCC(c3ccc(F)cc3C)CC2)CC1 (stereo unspecified) | 6.00 to 7.00
CC1(NCCC2CCC(c3ncccc3Cl)CC2)CCOCC1 (stereo unspecified) | 6.00 to 7.00
Cc1cccnc1C1CCC(CCNC2CCOCC2)CC1 (stereo unspecified) | 7.00 to 8.00
CN1CCC(NCCC2CCC(c3ncc(F)cc3Cl)CC2)CC1 (stereo unspecified) | 6.00 to 7.00
Cc1c(F)c(F)ccc1[C@H]1CC[C@@H](CCNC2(C(N)=O)CCOCC2)CC1 | 7.00 to 8.00
NC(=O)C1(NCC[C@H]2CC[C@H](c3ccc(F)cc3C(F)(F)F)CC2)CCOCC1 | 7.00 to 8.00
NC(=O)C1(NCC[C@H]2CC[C@@H](c3ncccc3Cl)CC2)CCOCC1 | 6.00 to 7.00
Fc1cnc([C@H]2CC[C@@H](CCNC3CCOCC3)CC2)nc1 | 6.00 to 7.00
Cc1cc(F)ccc1C1CCC(CCNC2CCCCC2)CC1 (stereo unspecified) | 6.00 to 7.00
CC1(NCCC2CCC(c3c(F)cccc3Cl)CC2)CCCC1 (stereo unspecified) | 7.00 to 8.00

Compound | pIC50
COCC1(NCCC2CCC(c3c(F)cccc3Cl)CC2)CCOCC1 (stereo unspecified) | 7.00 to 8.00
CNC(=O)C1(NCC[C@H]2CC[C@@H](c3ccc(F)cc3F)CC2)CCOCC1 | 7.00 to 8.00
NC(=O)C1(NCC[C@H]2CC[C@H](c3cccc(F)c3Cl)CC2)CCOCC1 | 6.00 to 7.00
CC1(NCCC2CCC(c3ncc(F)cc3Cl)CC2)CCOCC1 (stereo unspecified) | 6.00 to 7.00
NC(=O)C1(NCC[C@H]2CC[C@@H](c3ncc(F)cc3Cl)CC2)CCOCC1 | 7.00 to 8.00
Cc1cccnc1C1CCC(CCNC2(C)CCOCC2)CC1 (stereo unspecified) | 6.00 to 7.00
NC(=O)C1(NCCC2CCC(c3ccccc3Cl)CC2)CCCC1 (stereo unspecified) | 6.00 to 7.00
COCC1(NCC[C@H]2CC[C@H](c3ncc(F)cc3Cl)CC2)CCOCC1 | 6.00 to 7.00
Fc1cccc(C2CCC(CCNC3CCCCC3)CC2)c1Cl (stereo unspecified) | 7.00 to 8.00
Oc1cccc([C@H]2CC[C@H](CCNC3CCOCC3)CC2)c1 | 6.00 to 7.00
CC1(NCCC2CCC(c3ccccc3Cl)CC2)CCOCC1 (stereo unspecified) | 6.00 to 7.00
Cc1cccnc1[C@H]1CC[C@@H](CCNC2CCOCC2)CC1 | 7.00 to 8.00
Cc1cc(F)ccc1C1CCC(CCNC2(C)CCCC2)CC1 (stereo unspecified) | 7.00 to 8.00
Cc1c(C#N)cccc1[C@H]1CC[C@H](CCNC2CCOCC2)CC1 | 6.00 to 7.00
NC(=O)C1(NCC[C@H]2CC[C@H](c3ncccc3Cl)CC2)CCOCC1 | 6.00 to 7.00
Cc1cc(F)c(F)cc1[C@H]1CC[C@@H](CCNC2(C(N)=O)CCOCC2)CC1 | 7.00 to 8.00
CNC(=O)C1(NCC[C@H]2CC[C@H](c3c(F)cncc3Cl)CC2)CCOCC1 | 7.00 to 8.00
Fc1ccc(Cl)c(C2CCC(CCNC3CCCCC3)CC2)c1 (stereo unspecified) | 6.00 to 7.00
CC(=O)N1CCC(NCCC2CCC(c3ccc(Cl)cc3F)CC2)CC1 (stereo unspecified) | 6.00 to 7.00
COCC1(NCC[C@H]2CC[C@@H](c3ncc(F)cc3Cl)CC2)CCOCC1 | 7.00 to 8.00

Compound | pIC50
COCC1(NCCC2CCC(c3ncc(F)cc3Cl)CC2)CCOCC1 (stereo unspecified) | 6.00 to 7.00
Clc1cccnc1[C@H]1CC[C@@H](CCNC2CCOCC2)CC1 | 7.00 to 8.00
CNC(=O)C1(NCCC2CCC(c3ccc(Cl)cc3F)CC2)CCCC1 (stereo unspecified) | 6.00 to 7.00
Fc1ccc([C@H]2CC[C@@H](CCNC3CCCC3(F)F)CC2)c(Cl)c1 (stereo partly specified) | 7.00 to 8.00
CS(=O)(=O)N1CCC(NCC[C@H]2CC[C@@H](c3ccc(F)cc3Cl)CC2)CC1 | 7.00 to 8.00
CC1(NCC[C@H]2CC[C@H](c3ncc(F)cc3Cl)CC2)CCNC(=O)C1 (stereo partly specified) | 7.00 to 8.00
Cc1cccnc1[C@H]1CC[C@H](CCNC2CCOCC2)CC1 | 6.00 to 7.00
CC1(NCC[C@H]2CC[C@@H](c3ccc(F)cc3Cl)CC2)CCNC(=O)C1 (stereo partly specified) | 7.00 to 8.00
Fc1ccc(Cl)c(C2CCC(CCNC3CCCC3)CC2)c1 (stereo unspecified) | 7.00 to 8.00
NC(=O)C1(NCC[C@H]2CC[C@@H](c3ccc(F)cc3Cl)CC2)CCCC1 | 7.00 to 8.00
Cc1cnccc1C1CCC(CCNC2CCCCC2)CC1 (stereo unspecified) | 6.00 to 7.00
NC(=O)C1(NCC[C@H]2CC[C@@H](c3ccc(F)cc3Cl)CC2)CCCOC1 (stereo partly specified) | 6.00 to 7.00
Cc1ccncc1[C@H]1CC[C@H](CCNC2CCOCC2)CC1 | 6.00 to 7.00
CN(C)C(=O)C1(NCC[C@H]2CC[C@@H](c3ccc(F)cc3Cl)CC2)CCCC1 | 6.00 to 7.00
CC1(NCCC2CCC(c3cc(F)ccc3Cl)CC2)CCCC1 (stereo unspecified) | 6.00 to 7.00
CC1(NCCC2CCC(c3ccc(F)cc3F)CC2)CCCC1 (stereo unspecified) | 6.00 to 7.00
Fc1cc(Cl)ccc1C1CCC(CCNC2CCCC2)CC1 (stereo unspecified) | 7.00 to 8.00
O=C(NCC1CC1)C1(NCC[C@H]2CC[C@@H](c3ccc(F)cc3Cl)CC2)CCCC1 | 6.00 to 7.00
Cc1cc(F)ccc1C1CCC(CCNC2(C)CCOCC2)CC1 (stereo unspecified) | 6.00 to 7.00

Other lines, results leading:

pIC50 | Compound
7.00 to 8.00 | CC(=O)N1CCC(NCC[C@H]2CC[C@@H](c3ccc(F)cc3Cl)CC2)C1 (stereo partly specified)
8.00 to 9.00 | Fc1ccc([C@H]2CC[C@H](CCNC3CCOCC3)CC2)c(Cl)c1
8.00 to 9.00 | NC(=O)C1(NCC[C@H]2CC[C@H](c3c(F)cc(F)cc3Cl)CC2)CCOCC1
7.00 to 8.00 | CCNC(=O)C1(NCC[C@H]2CC[C@H](c3ncc(F)cc3Cl)CC2)CCOCC1
> 9.00 | O=C1CC(NCC[C@H]2CC[C@@H](c3ccc(F)cc3Cl)CC2)CCN1 (stereo partly specified)
8.00 to 9.00 | NC(=O)C1(NCC[C@H]2CC[C@@H](c3ccc(F)cc3Cl)CC2)CCOCC1
7.00 to 8.00 | CC(=O)N1CCC(NCC[C@H]2CC[C@@H](c3ccc(F)cc3Cl)CC2)CC1
7.00 to 8.00 | COCC1(NCCC2CCC(c3ccc(F)cc3F)CC2)CCOCC1 (stereo unspecified)
8.00 to 9.00 | CNC(=O)C1(NCC[C@H]2CC[C@@H](c3ncc(F)cc3Cl)CC2)CCOCC1
8.00 to 9.00 | Fc1cccc(Cl)c1C1CCC(CCNC2CCCC2)CC1 (stereo unspecified)
8.00 to 9.00 | Cc1cc(F)ccc1[C@H]1CC[C@H](CCNC2CCOCC2)CC1
8.00 to 9.00 | CO[C@@H]1COCC[C@@H]1NCC[C@H]1CC[C@@H](c2ccc(F)cc2Cl)CC1
8.00 to 9.00 | O=C1C[C@H](NCC[C@H]2CC[C@@H](c3ncc(F)cc3Cl)CC2)CCN1
> 9.00 | Fc1ccc(C2CCC(CCN[C@H]3CC[C@@H](F)C3)CC2)c(Cl)c1 (stereo partly specified)
7.00 to 8.00 | NC(=O)C1(NCC[C@H]2CC[C@@H](c3ccc(F)cc3F)CC2)CCOCC1
7.00 to 8.00 | COCC1(NCC[C@H]2CC[C@@H](c3ccc(F)cc3Cl)CC2)CCNC(=O)C1 (stereo partly specified)

pIC50 | Compound
7.00 to 8.00 | Fc1cnc(C2CCC(CCNC3(C4CC4)CCOCC3)CC2)c(Cl)c1 (stereo unspecified)
> 9.00 | Fc1ccc([C@H]2CC[C@@H](CCNC3CCOCC3)CC2)c(Cl)c1
8.00 to 9.00 | Cc1cc(F)cc(F)c1[C@H]1CC[C@H](CCNC2(C(N)=O)CCOCC2)CC1
8.00 to 9.00 | CNC(=O)C1(NCC[C@H]2CC[C@@H](c3c(F)cncc3Cl)CC2)CCOCC1
> 9.00 | CNC(=O)C1(NCC[C@H]2CC[C@@H](c3ccc(F)cc3Cl)CC2)CCOCC1
> 9.00 | Cc1cc(F)ccc1[C@H]1CC[C@@H](CCNC2CCOCC2)CC1
8.00 to 9.00 | Cc1cc(F)ccc1C1CCC(CCNC2CCCC2)CC1 (stereo unspecified)
8.00 to 9.00 | Fc1cc(Cl)ccc1C1CCC(CCNC2CCOCC2)CC1 (stereo unspecified)
> 9.00 | Fc1cnc([C@H]2CC[C@@H](CCNC3CCOCC3)CC2)c(Cl)c1
8.00 to 9.00 | Clc1ccccc1C1CCC(CCNC2CCOCC2)CC1 (stereo unspecified)
8.00 to 9.00 | NC(=O)C1(NCC[C@H]2CC[C@@H](c3c(F)cc(F)cc3Cl)CC2)CCOCC1
8.00 to 9.00 | Fc1cnc([C@H]2CC[C@H](CCNC3CCOCC3)CC2)c(Cl)c1
> 9.00 | Fc1ccc([C@H]2CC[C@@H](CCNC3CCCC3)CC2)c(Cl)c1
8.00 to 9.00 | CNC(=O)C1(NCC[C@H]2CC[C@H](c3ncc(F)cc3Cl)CC2)CCOCC1
8.00 to 9.00 | CCNC(=O)C1(NCC[C@H]2CC[C@@H](c3ncc(F)cc3Cl)CC2)CCOCC1
8.00 to 9.00 | CCNC(=O)C1(NCC[C@H]2CC[C@@H](c3ccc(F)cc3Cl)CC2)CCOCC1
